Experiments:
[1] = Clearance in Beagle dog hepatocytes at 0.5 uM up to 60 mins by LC-MS/MS analysis; format: ADME, cell-based, Canis lupus familiaris, Hepatocyte; settings: 1 h
[2] = Bioavailability in Wistar Han rat at 1 mg/kg, it measured after 12 hrs post dose; format: ADME, organism-based; settings: in vivo, inhaled or intranasal
[3] = Clearance in Wistar Han rat liver microsomes at 0.5 uM up to 45 mins by LC-MS/MS analysis; format: ADME, microsome; settings: 0.75 h
[4] = Protein binding in human blood at 1 ug/ml after 4 hrs by LC-MS/MS analysis; format: ADME, tissue-based; settings: at 1 µg/mL, read-out: PB (converted)
[5] = Protein binding in mouse lung at 1 ug/ml after 4 hrs by rapid equilibrium dialysis and LC-MS/MS analysis; format: ADME, tissue-based; settings: at 1 µg/mL, read-out: PB (converted)
[6] = Oral bioavailability in Wistar Han rat at 3 mg/kg via gavage; format: ADME, organism-based; settings: in vivo
Canis familiaris [7] = assay: Clearance in Beagle dog at 1 mg/kg, iv relative to liver blood flow; format: ADME, organism-based, Canis lupus familiaris; settings: in vivo
[8] = Tmax in Beagle dog blood at 1 mg/kg, iv dosed via 60 mins infusion followed by 6 days washout and re-dosed via oral gavage at 1 mg/kg; format: ADME, organism-based, Canis lupus familiaris; settings: whole blood
[9] = Oral bioavailability in Beagle dog at 1 mg/kg via gavage; format: ADME, organism-based, Canis lupus familiaris; settings: in vivo
[10] = Clearance in CD mouse liver microsomes at 0.5 uM up to 45 mins by LC-MS/MS analysis; format: ADME, microsome; settings: 0.75 h
[11] = Clearance in human hepatocytes at 0.5 uM up to 60 mins by LC-MS/MS analysis; format: ADME, cell-based, Hepatocyte; settings: 1 h
[12] = Clearance in human liver microsomes at 0.5 uM up to 45 mins by LC-MS/MS analysis; format: ADME, microsome; settings: 0.75 h
[13] = Clearance in CD mouse hepatocytes at 0.5 uM up to 60 mins by LC-MS/MS analysis; format: ADME, cell-based, Hepatocyte; settings: 1 h
[14] = Clearance in Beagle dog blood at 1 mg/kg, iv dosed via 60 mins infusion followed by 6 days washout and re-dosed via oral gavage at 1 mg/kg; format: ADME, organism-based, Canis lupus familiaris; settings: whole blood
[15] = Cmax in Beagle dog at 1 mg/kg, po via gavage; format: ADME, organism-based, Canis lupus familiaris; set-up: dose 1 mg/kg, route oral; settings: in vivo
[16] = Volume of distribution at steady state in Wistar Han rat at 1 mg/kg, iv via 30 mins infusion followed by 2 day washout and re-dosed via oral gavage at 3 mg/kg; format: ADME, organism-based; settings: in vivo, read-out: Vdss
[17] = Protein binding in dog blood at 1 ug/ml after 4 hrs by rapid equilibrium dialysis and LC-MS/MS analysis; format: ADME, tissue-based, Canis lupus familiaris; settings: at 1 µg/mL, read-out: PB (converted)
[18] = Protein binding in dog plasma at 1 ug/ml after 4 hrs by rapid equilibrium dialysis and LC-MS/MS analysis; format: ADME, cell-free, Canis lupus familiaris; settings: at 1 µg/mL, read-out: PPB (converted)
[19] = Terminal half life in Wistar Han rat at 1 mg/kg, iv dosed via 30 mins infusion; format: ADME, organism-based; settings: in vivo, read-out: beta t1/2
[20] = Bioavailability in Wistar Han rat nebulized with dose level of 0.227 mg/kg; format: ADME, organism-based; settings: in vivo, inhaled or intranasal
Canis familiaris [21] = assay: Total renal clearance in Beagle dog at 1 mg/kg, iv; format: ADME, organism-based, Canis lupus familiaris; settings: in vivo
[22] = Protein binding in human plasma at 1 ug/ml after 4 hrs by rapid equilibrium dialysis and LC-MS/MS analysis; format: ADME, cell-free; settings: at 1 µg/mL, read-out: PPB (converted)
Rattus norvegicus [23] = assay: Clearance in Wistar Han rat at 1 mg/kg, iv relative to liver blood flow; format: ADME, organism-based; settings: in vivo
[24] = Drug uptake in Wistar Han rat lung at 0.227 mg/kg administered via nebulisation after 7 hrs; format: ADME, organism-based; settings: inhaled or intranasal, read-out: Drug uptake
Rattus norvegicus [25] = assay: Biliary clearance in Wistar Han rat assessed as unchanged parent compound level at 1 mg/kg, iv relative to total blood clearance; format: ADME, organism-based; settings: in vivo
[26] = Clearance in Beagle dog liver microsomes at 0.5 uM up to 45 mins by LC-MS/MS analysis; format: ADME, Canis lupus familiaris, microsome; settings: 0.75 h
[27] = Drug uptake in lung of C57Bl/6J mouse at 1.5 mg/kg/day, sc administered via continuous infusion through mini-pumps measured within 24 hrs; format: ADME, organism-based; settings: in vivo
[28] = Drug uptake in lung of C57Bl/6J mouse at 15 mg/kg/day, sc administered via continuous infusion through mini-pumps measured within 24 hrs; format: ADME, organism-based; settings: in vivo
[29] = Cmax in Wistar Han rat at 3 mg/kg, po via gavage; format: ADME, organism-based; set-up: dose 3 mg/kg, route oral; settings: in vivo
in vivo [30] = settings: Wistar Han, rat, inhaled or intranasal, 0.227 mg/kg
Description: Tmax in Wistar Han rat nebulized with dose level of 0.227 mg/kg

[31] = Protein binding in mouse blood at 1 ug/ml after 4 hrs by rapid equilibrium dialysis and LC-MS/MS analysis; format: ADME, tissue-based; settings: at 1 µg/mL, read-out: PB (converted)
Rattus norvegicus [32] = assay: Total renal clearance in Wistar Han rat at 1 mg/kg, iv; format: ADME, organism-based; settings: in vivo
[33] = Protein binding in rat kidneys at 1 ug/ml after 4 hrs by rapid equilibrium dialysis and LC-MS/MS analysis; format: ADME, tissue-based; settings: rat kidney tissue, at 1 µg/mL, read-out: PB (converted)
[34] = Protein binding in human blood at 1 ug/ml after 4 hrs by rapid equilibrium dialysis and LC-MS/MS analysis; format: ADME, tissue-based; settings: at 1 µg/mL, read-out: PB (converted)
[35] = Protein binding in rat blood at 1 ug/ml after 4 hrs by rapid equilibrium dialysis and LC-MS/MS analysis; format: ADME, tissue-based; settings: at 1 µg/mL, read-out: PB (converted)
[36] = Blood clearance in Wistar Han rat at 1 mg/kg, iv via 30 mins infusion followed by 2 day washout and re-dosed via oral gavage at 3 mg/kg; format: ADME, organism-based; settings: whole blood
[37] = Protein binding in human lung at 1 ug/ml after 4 hrs by rapid equilibrium dialysis and LC-MS/MS analysis; format: ADME, tissue-based; settings: at 1 µg/mL, read-out: PB (converted)
in vivo [38] = settings: Wistar Han, rat, po, 3 mg/kg
[39] = Cmax in Wistar Han rat nebulized with dose level of 0.227 mg/kg; format: ADME, organism-based; set-up: dose 0.227 mg/kg; settings: in vivo, inhaled or intranasal
[40] = Clearance in Wistar Han rat hepatocytes at 0.5 uM up to 60 mins by LC-MS/MS analysis; format: ADME, cell-based, Hepatocyte; settings: 1 h
[41] = Drug uptake in Wistar Han rat lung at 0.227 mg/kg administered via nebulisation up to 7 hrs; format: ADME, organism-based; settings: in vivo, inhaled_or_intranasal
[42] = Terminal half life in Beagle dog blood at 1 mg/kg, iv dosed via 60 mins infusion followed by 6 days washout and re-dosed via oral gavage at 1 mg/kg; format: ADME, organism-based, Canis lupus familiaris; settings: whole blood, read-out: beta t1/2
[43] = Bioavailability in Wistar Han rat at 0.227 mg/kg administered via nebulisation; format: ADME, organism-based; settings: in vivo, inhaled or intranasal
[44] = Drug uptake in Wistar Han rat lung at 6.23 mg/kg administered via nebulized inhalation for 60 mins and measured immediately after inhalation period by MALDI-MS analysis; format: ADME, organism-based; settings: in vivo, inhaled_or_intranasal, 1 h
[45] = Drug uptake in Wistar Han rat lung at 6.23 mg/kg administered via nebulized inhalation for 60 mins and measured after 60 mins post inhalation period by MALDI-MS analysis; format: ADME, organism-based; settings: in vivo, inhaled_or_intranasal, 1 h
[46] = Volume of distribution at steady state in Beagle dog blood at 1 mg/kg, iv dosed via 60 mins infusion followed by 6 days washout and re-dosed via oral gavage at 1 mg/kg; format: ADME, organism-based, Canis lupus familiaris; settings: whole blood, read-out: Vdss
[47] = Protein binding in rat liver at 1 ug/ml after 4 hrs by rapid equilibrium dialysis and LC-MS/MS analysis; format: ADME, tissue-based; settings: at 1 µg/mL, read-out: PB (converted)

In the case of `Cc1cc(C)n(-c2cccc([C@H](CC(=O)O)CN3CC[C@@H](CCc4ccc5c(n4)NCCC5)C3)c2)n1` [GSK-3008348 FREE BASE], the CLH [1] is reported as under 1.73 mL/min/g, the bioavailability [2] is reported as 21% and the CLH [3] is reported as 0.55 mL/min/g. The fraction unbound at 4 h, 1 ug/ml [4] was 0.08, the fraction unbound at 4 h, 1 ug/ml [5] was 0.1 and the bioavailability [6] was under 2%. The CL (Canis familiaris [7]) was 50%, the Tmax [8] was 15 to 30 min and the bioavailability [9] was 27 to 34%. The CLH [10] was 3 mL/min/g, the CLH [11] was under 0.86 mL/min/g and the CLH [12] was 0.58 mL/min/g. For the same compound, the CLH [13] was 15.3 mL/min/g, the clearance [14] was 1.5 to 1.98 L/h/kg and the Cmax [15] was 0.055 to 0.076 µg/mL. The Vd [16] was 1.8 to 2.3 L/kg, the fraction unbound at 4 h, 1 ug/ml [17] was 0.228 and the fraction unbound at 4 h, 1 ug/ml [18] was 0.4. The half-life [19] was 48 to 54 min, the bioavailability [20] was 40 to 63% and the CL (Canis familiaris [21]) was 21%. The fraction unbound at 4 h, 1 ug/ml [22] was 0.036, the CL (Rattus norvegicus [23]) was 70% and the concentration at 7 h [24] was 10 ng/g. The CL (Rattus norvegicus [25]) was 24%, the CLH [26] was under 0.53 mL/min/g and the Drug uptake [27] was “Active”. The Drug uptake [28] was “Active”, the Cmax [29] was 0.003 to 0.009 µg/mL and the Tmax (in vivo [30]) was 12 min. For the same compound, the fraction unbound at 4 h, 1 ug/ml [31] was 0.211, the CL (Rattus norvegicus [32]) was 15% and the fraction unbound at 4 h, 1 ug/ml [33] was 0.027. The fraction unbound at 4 h, 1 ug/ml [34] was 0.083, the fraction unbound at 4 h, 1 ug/ml [35] was 0.294 and the clearance [36] was 3.06 to 3.6 L/h/kg. For the same compound, the fraction unbound at 4 h, 1 ug/ml [37] was 0.108, the Tmax (in vivo [38]) was 30 to 120 min and the Cmax [39] was 0.03 to 0.053 µg/mL. The CLH [40] was 9.45 mL/min/g, the Drug uptake [41] was 716 ng and the half-life [42] was 72 to 324 min. The bioavailability [43] was 54%, the Drug uptake [44] was “Active” and the Drug uptake [45] was “Not Active”. For the same compound, the Vd [46] was 2.6 to 4.7 L/kg and the fraction unbound at 4 h, 1 ug/ml [47] was 0.085.

Source: ChEMBL document CHEMBL4229566, “Discovery of ( S)-3-(3-(3,5-Dimethyl-1 H-pyrazol-1-yl)phenyl)-4-(( R)-3-(2-(5,6,7,8-tetrahydro-1,8-naphthyridin-2-yl)ethyl)pyrrolidin-1-yl)butanoic Acid, a Nonpeptidic αvβ6 Integrin Inhibitor for the Inhaled Treatment of Idiopathic Pulmonary Fibrosis” (J Med Chem, 2018)
